Data set [1] in a line: stability of the formed compound at room temperature. It is filed as physicochemical. The source says:
(§1) Fluorouracil Glycolate is formed by a chemical reaction between fluorouracil and glycolic acid, in an acid-base reaction under the Lowry-Bronsted model in a typical acid-base reaction. The new unique compound when formed is stable at room temperature for approximately one year. The molecular weight of the new compound is 205.72. The magic wart cream formulation, a thick cream resembling peanut butter, has a consistency designed for easy application to the lesions with a toothpick. This is to eliminate any messy, troublesome dribbling as this was a problem encountered early and then overcome on a trial and error basis, resulting in the thicker consistency. By applying the magic wart cream to only the center of the wart, and not to the edges, it focuses the target of the high-sulfur containing, amino acid rich matrix of keratin to where the fluorouracil glycolate can pool. Then it forms a depot within the small socket of the lesion. This dictates the nature of the liberation absorption and distribution the drug delivery system.

Data set [2] in a line: systemic absorption after topical application to the lesion. It is filed as in vivo. The note with it: saturation of the lesion.
From the text: as §1

Each structure is given as a SMILES string.

In the case of `O=C(O)CO.O=c1[nH]cc(F)c(=O)[nH]1` [Fluorouracil Glycolate], in data set [1], the “stable at room temperature (duration)” value is “approximately one”. Also, in data set [2], the systemic absorption entry is reported as “without observed systemic absorption”.
